Target: T1, RORγt (Homo sapiens, UniProt P51449)
T1 construct: […]
T1 sequence (P51449 269-508 limits assumed): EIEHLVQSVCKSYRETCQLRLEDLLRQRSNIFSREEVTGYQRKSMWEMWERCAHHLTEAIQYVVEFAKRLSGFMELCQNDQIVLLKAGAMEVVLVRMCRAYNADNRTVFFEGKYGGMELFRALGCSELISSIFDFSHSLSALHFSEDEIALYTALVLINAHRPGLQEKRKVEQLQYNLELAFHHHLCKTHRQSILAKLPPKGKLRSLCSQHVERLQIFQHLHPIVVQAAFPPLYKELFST
Assay: Fluorescence resonance energy transfer (FRET) test, inhibitory activity of RORγt
Assay type: biochemical
Details: FRET, B-RORγt LBD / Biotin-SRC1; read-out: IC50

Row | SMILES | IC50 [nM]
1 | CCS(=O)(=O)c1ccc([C@H](CC#N)NC(=O)c2ccc(N3C[C@@H](Oc4ccc(C(O)(C(F)(F)F)C(F)(F)F)cc4)C[C@H]3COC(F)F)cc2)cc1 [Example 26, N-((S)-2-cyano-1-(4-(ethylsulfonyl)phenyl)ethyl)-4-((2S,4S)-2-((difluoromethoxy)methyl)-4-(4-(1,1,1,3,3,3-hexafluoro-2-hydroxypropan-2-yl)phenoxy)pyrrolidin-1-yl)benzamide] | 23
2 | CCS(=O)(=O)c1ccc([C@H](CC#N)NC(=O)c2ccc(N3C[C@H](NCC4CCC(F)(F)CC4)C[C@H]3COC(F)F)cc2)cc1 [Example 31] | 59.8
3 | CCS(=O)(=O)c1ccc([C@H](CC#N)NC(=O)c2ccc(N3C[C@H](N(C)CC4CCC(F)(F)CC4)C[C@H]3COC(F)F)cc2)cc1 [Example 32] | 61.1
4 | CCS(=O)(=O)c1ccc([C@H](CC#N)NC(=O)c2ccc(N3C[C@@H](OCc4ccc(OC(F)(F)F)cc4)C[C@H]3COC(F)F)cc2)cc1 [Example 39, N—((S)-2-cyano-1-(4-(ethylsulfonyl)phenyl)ethyl)-4-((2S,4S)-2-((difluoromethoxy)methyl)-4-((4-(trifluoromethoxy)benzyl)oxy)pyrrolidin-1-yl)benzamide] | 67.5
5 | CS(=O)(=O)c1ccc([C@H](CC#N)NC(=O)c2ccc(N3C[C@@H](Oc4ccc(C(F)(F)F)cc4)C[C@H]3COC(F)F)cc2)cc1 [Example 62, N-((S)-2-cyano-1-(4-(methylsulfonyl)phenyl)ethyl)-4-((2S,4S)-2-((difluoromethoxy)methyl)-4-(4-(trifluoromethyl)phenoxy)pyrrolidin-1-yl)benzamide] | 22
6 | CCS(=O)(=O)c1ccc([C@H](CC#N)NC(=O)c2ccc(N3C[C@@H](Oc4ccc(C(F)(F)F)cc4)C[C@H]3COC(F)F)c(Cl)c2)cc1 [Example 66, 3-chloro-N-((S)-2-cyano-1-(4-(ethylsulfonyl)phenyl)ethyl)-4-((2S,4S)-2-((difluoromethoxy)methyl)-4-(4-(trifluoromethyl)phenoxy)pyrrolidin-1-yl)benzamide] | 33
7 | CCS(=O)(=O)c1ccc([C@H](CC#N)NC(=O)c2ccc(N3C[C@@H](Oc4ccc(C(F)(F)F)cc4)C[C@H]3CCOC(F)(F)F)cc2)cc1 [Example 76, N—((S)-2-cyano-1-(4-(ethylsulfonyl)phenyl)ethyl)-4-((2R,4S)-2-(2-(trifluoromethoxy)ethyl)-4-(4-(trifluoromethyl)phenoxy)pyrrolidin-1-yl)benzamide] | 18
8 | CCOC[C@@H]1C[C@H](Oc2ccc(C(F)(F)F)cc2)CN1c1ccc(C(=O)N[C@H](CC#N)c2ccc(S(=O)(=O)CC)cc2)cc1 [Example 77, N—((R)-2-cyano-1-(4-(ethylsulfonyl)phenyl)ethyl)-4-((2S,4S)-2-(ethoxymethyl)-4-(4-(trifluoromethyl)phenoxy)-1-pyrrolidine)benzamide] | 7
9 | CCS(=O)(=O)c1ccc([C@H](COCC(=O)O)NC(=O)c2ccc(N3C[C@@H](Oc4ccc(C(F)(F)F)cc4)C[C@H]3COC(F)F)cc2)cc1 [Example 90, 2-((R)-2-(4-((2S,4S)-2-((difluoromethoxy)methyl)-4-(4-(trifluoromethyl)phenoxy)pyrrolidin-1-yl)benzoylamino)-2-(4-(ethylsulfonyl)phenyl)ethoxy)acetic Acid] | 9
10 | CCS(=O)(=O)c1ccc([C@H](CC(=O)O)NC(=O)c2ccc(N3C[C@@H](Oc4ccc(C(F)(F)F)cc4)C[C@H]3COC(F)F)cc2)cc1 [Example 92, (S)-3-(4-((2S,4S)-2-((difluoromethoxy)methyl)-4-(4-(trifluoromethyl)phenoxy)pyrrolidin-1-yl)benzoylamino)-3-(4-(ethylsulfonyl)phenyl)propionic Acid] | 21
11 | CCS(=O)(=O)c1ccc([C@H](CC(=O)NO)NC(=O)c2ccc(N3C[C@@H](Oc4ccc(C(F)(F)F)cc4)C[C@H]3COC(F)F)cc2)cc1 [Example 93] | 13
12 | CCS(=O)(=O)c1ccc([C@H](CC(=O)NC)NC(=O)c2ccc(N3C[C@@H](Oc4ccc(C(F)(F)F)cc4)C[C@H]3COC(F)F)cc2)cc1 [Example 94] | 31
13 | CCS(=O)(=O)c1ccc([C@H](CC(=O)N(C)C)NC(=O)c2ccc(N3C[C@@H](Oc4ccc(C(F)(F)F)cc4)C[C@H]3COC(F)F)cc2)cc1 [Example 95] | 77
14 | CCS(=O)(=O)c1ccc([C@H](CC(=O)OC)NC(=O)c2ccc(N3C[C@@H](Oc4ccc(C(F)(F)F)cc4)C[C@H]3COC(F)(F)F)cc2)cc1 [Example 96, methyl (S)-3-(4-(ethylsulfonyl)phenyl)-3-(4-((2S,4S)-2-((trifluoromethoxy)methyl)-4-(4-(trifluoromethyl)phenoxy)pyrrolidin-1-yl)benzamido)propionate] | 31
15 | CCS(=O)(=O)c1ccc([C@H](CC(=O)OC)NC(=O)c2ccc(N3C[C@@H](Oc4ccc(C(F)(F)F)cc4)C[C@H]3COC(F)F)cc2)cc1 [Example 97, methyl (S)-3-(4-((2S,4S)-2-((difluoromethoxy)methyl)-4-(4-(trifluoromethyl)phenoxy)pyrrolidin-1-yl)benzoylamino)-3-(4-(ethylsulfonyl)phenyl)propionate] | 21
16 | CCS(=O)(=O)c1ccc([C@H](CC(N)=O)NC(=O)c2ccc(N3C[C@@H](Oc4ccc(C(F)(F)F)cc4)C[C@H]3COC(F)F)cc2)cc1 [Example 98, N—((S)-3-amino-1-(4-(ethylsulfonyl)phenyl)-3-oxopropyl)-4-((2S,4S)-2-((difluoromethoxy)methyl)-4-(4-(trifluoromethyl)phenoxy)pyrrolidin-1-yl)benzamide] | 21

Now from value to molecule:

Row | IC50 [nM] | SMILES
17 | 30 | CCS(=O)(=O)c1ccc([C@H](CC#N)NC(=O)c2ccc(N3C[C@@H](Oc4ccc(OC(C)C)nc4)C[C@H]3COC(F)F)cc2)cc1 [Example 20, N-((S)-2-cyano-1-(4-(ethylsulfonyl)phenyl)ethyl)-4-((2S,4S)-2-((difluoromethoxy)methyl)-4-((6-isopropoxypyridin-3-yl)oxy)pyrrolidin-1-yl)benzamide]
18 | 2 | CCS(=O)(=O)c1ccc([C@H](CC#N)NC(=O)c2ccc(N3C[C@@H](Oc4ccc(Cl)cc4)C[C@H]3COC(F)F)cc2)cc1 [Example 21, 4-((2S)-4-(4-chlorophenoxy)-2-((difluoromethoxy)methyl)pyrrolidin-1-yl)-N-((S)-2-cyano-1-(4-(ethylsulfonyl)phenyl)ethyl)benzamide]
19 | 19 | CCS(=O)(=O)c1ccc([C@H](CC#N)NC(=O)c2ccc(N3C[C@@H](Oc4ccc(C#N)cc4)C[C@H]3COC(F)F)cc2)cc1 [Example 24, N-((S)-2-cyano-1-(4-(ethylsulfonyl)phenyl)ethyl)-4-((2S,4S)-4-(4-cyanophenoxy)-2-((difluoromethoxy)methyl)pyrrolidin-1-yl)benzamide]
20 | 66 | CCS(=O)(=O)c1ccc([C@H](CC#N)NC(=O)c2ccc(N3C[C@@H](Oc4ccc(C(N)=O)cc4)C[C@H]3COC(F)F)cc2)cc1 [Example 25, 4-((2S,4S)-4-(4-carbamoylphenoxy)-2-((difluoromethoxy)methyl)pyrrolidin-1-yl)-N-((S)-2-cyano-1-(4-(ethylsulfonyl)phenyl)ethyl)benzamide]
21 | 24 | CCS(=O)(=O)c1ccc([C@H](CC#N)NC(=O)c2ccc(N3C[C@@H](Oc4ccc(F)cc4)C[C@H]3COC(F)F)cc2)cc1 [Example 28, N-((S)-2-cyano-1-(4-(ethylsulfonyl)phenyl)ethyl)-4-((2S,4S)-2-((difluoromethoxy)methyl)-4-(4-fluorophenoxy)pyrrolidin-1-yl)benzamide]
22 | 21 | CCS(=O)(=O)c1ccc([C@H](CC#N)NC(=O)c2ccc(N3C[C@@H](Oc4ccc(C5CC5)cn4)C[C@H]3COC(F)F)cc2)cc1 [Example 40, N—((S)-2-cyano-1-(4-(ethylsulfonyl)phenyl)ethyl)-4-((2S,4S)-4-((5-cyclopropylpyridin-2-yl)oxy)-2-((difluoromethoxy)methyl)pyrrolidin-1-yl)benzamide]
23 | 17 | CCS(=O)(=O)c1ccc([C@H](CC#N)NC(=O)c2ccc(N3C[C@@H](Oc4ccc(OC)cn4)C[C@H]3COC(F)F)cc2)cc1 [Example 41, N—((S)-2-cyano-1-(4-(ethylsulfonyl)phenyl)ethyl)-4-((2S,4S)-2-((difluoromethoxy)methyl)-4-((5-methoxypyridin-2-yl)oxy)pyrrolidin-1-yl)benzamide]
24 | 43 | CCS(=O)(=O)c1ccc([C@H](CC#N)NC(=O)c2ccc(N3C[C@@H](Oc4ccc(-n5cnc(C)c5)cc4)C[C@H]3COC(F)F)cc2)cc1 [Example 45, N—((S)-2-cyano-1-(4-(ethylsulfonyl)phenyl)ethyl)-4-((2S,4S)-2-((difluoromethoxy)methyl)-4-(4-(4-methyl-1H-imidazol-1-yl)phenoxy)pyrrolidin-1-yl)benzamide]
25 | 10 | CCS(=O)(=O)c1ccc([C@H](CC#N)NC(=O)c2ccc(N3C[C@@H](Oc4ccc(C(F)(F)F)cc4)C[C@H]3CCOC(F)F)cc2)cc1 [Example 75, N—((S)-2-cyano-1-(4-(ethylsulfonyl)phenyl)ethyl)-4-((2R,4S)-2-(2-(difluoromethoxy)ethyl)-4-(4-(trifluoromethyl)phenoxy)pyrrolidin-1-yl)benzamide]
26 | 12 | CCS(=O)(=O)c1ccc([C@H](CC#N)NC(=O)c2ccc(N3C[C@@H](Oc4ccc5c(c4)OC(F)(F)O5)C[C@H]3COC(F)F)cc2)cc1 [Example 78, N—((S)-2-cyano-1-(4-(ethylsulfonyl)phenyl)ethyl)-4-((2S,4S)-4-((2,2-difluorobenzo[d][1,3]dioxol-5-yl)oxy)-2-((difluoromethoxy)methyl)pyrrolidin-1-yl)-benzamide]
27 | 14 | CCS(=O)(=O)c1ccc([C@H](CC#N)NC(=O)c2ccc(N3C[C@@H](OC4CCC(C(F)(F)F)CC4)C[C@H]3COC(F)F)cc2)cc1 (stereo partly drawn) [Example 89, N—((S)-2-cyano-1-(4-(ethylsulfonyl)phenyl)ethyl)-4-((2S)-2-((difluoromethoxy)methyl)-4-((4-(trifluoromethyl)cyclohexyl)oxy)pyrrolidin-1-yl)benzamide]
